Source: PMC3605045, “GH1-family 6-P-β-glucosidases from human microbiome lactic acid bacteria” (Acta Crystallographica Section D: Biological Crystallography, 2013)

Experiments:
SmBgl = biological target: T1, SmBgl (Streptococcus mutans, UniProt Q8DT00); experiment: X-ray crystal structure, […] Å; assay type: binding; conditions: crystallised with 5 mM 6'-P-gentiobiose; product in phosphate and -1 subsites
T1 construct: gene bgl; full length, 477 residues, ~55 kDa, homodimer; His6 cut by TEV, SNA- left at N-terminus; E. coli BL21 (DE3) Magic, pMCSG7; SeMet-labelled protein in kinetic assays

LpPgb1 = biological target: T2, LpPgb1 (Lactiplantibacillus plantarum, UniProt F9UU25); experiment: G6PDH-coupled NADPH absorbance assay ([…] nm); assay type: biochemical; conditions: 0.1 M HEPES-NaOH pH 8.0, 2 mM NADP+, 298 K; native enzyme 0.02 µM
T2 construct: gene pbg1; full length Met1-Glu478, 478 residues, ~55 kDa, homodimer; His6 cut by TEV, SNA- left at N-terminus; E. coli BL21 (DE3) Magic, pMCSG7

| SMILES | X-ray crystal structure, 1.48 Å (SmBgl) | G6PDH-coupled NADPH absorbance assay (340 nm) (LpPgb1) |
| --- | --- | --- |
| O=P(O)(O)OC[C@H]1OC(O)[C@H](O)[C@@H](O)[C@@H]1O (stereo partly drawn) [BG6, 6-P-β-glucose] | two BG6 ligands | – |
| O=P(O)(O)OC[C@H]1O[C@@H](O[C@H]2[C@H](O)[C@@H](O)C(O)O[C@@H]2CO)[C@H](O)[C@@H](O)[C@@H]1O (stereo partly drawn) [6′-P-cellobiose] | – | Both enzymes showed hydrolytic activity towards all of these substrates |
| O=P(O)(O)OC[C@H]1O[C@@H](OC[C@H]2OC(O)[C@H](O)[C@@H](O)[C@@H]2O)[C@H](O)[C@@H](O)[C@@H]1O (stereo partly drawn) [6′-P-gentiobiose] | – | Both enzymes showed hydrolytic activity towards all of these substrates |
